The values that follow come from paper PMC9867837 (Cancer letters, 2022).

A value given as a limit tells only on which side of the number the result lay.

Experiment [1] addresses T1, Stat1:Stat1 DNA-binding activity (Mus musculus, UniProt P42225).
T1 construct: endogenous in cells; host or cells: EGF-stimulated NIH3T3/hEGFR fibroblasts (nuclear extract)
T1 sequence (P42225 2-749 limits assumed): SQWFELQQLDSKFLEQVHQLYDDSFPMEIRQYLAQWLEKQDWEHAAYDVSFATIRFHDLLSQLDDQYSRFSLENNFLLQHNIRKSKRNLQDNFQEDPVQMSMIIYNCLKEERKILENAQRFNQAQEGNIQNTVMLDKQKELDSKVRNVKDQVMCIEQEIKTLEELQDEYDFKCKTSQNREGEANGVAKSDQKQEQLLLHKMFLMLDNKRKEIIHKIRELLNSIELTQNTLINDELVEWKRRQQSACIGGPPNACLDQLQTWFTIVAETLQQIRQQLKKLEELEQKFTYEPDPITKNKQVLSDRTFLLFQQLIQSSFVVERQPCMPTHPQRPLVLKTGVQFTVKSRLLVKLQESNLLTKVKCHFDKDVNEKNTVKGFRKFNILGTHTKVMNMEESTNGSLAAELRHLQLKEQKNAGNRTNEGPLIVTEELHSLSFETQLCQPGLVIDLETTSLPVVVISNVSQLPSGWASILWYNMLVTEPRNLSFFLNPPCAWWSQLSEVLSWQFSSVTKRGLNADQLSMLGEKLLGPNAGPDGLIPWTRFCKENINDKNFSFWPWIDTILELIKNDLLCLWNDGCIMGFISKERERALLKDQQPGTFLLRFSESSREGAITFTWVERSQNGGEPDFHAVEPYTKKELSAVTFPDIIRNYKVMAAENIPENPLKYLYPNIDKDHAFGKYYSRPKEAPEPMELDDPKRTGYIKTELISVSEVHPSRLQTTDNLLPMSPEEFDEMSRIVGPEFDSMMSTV
As to the kind of experiment: EMSA of Stat1:Stat1 DNA-binding activity in nuclear extracts of EGF-stimulated NIH3T3/hEGFR. It is filed as biochemical. To be noted: Fig. 1C, 30 min. How it is done: These studies were carried out as previously described using the ^32P-labeled oligonucleotide probes, hSIE (high affinity sis-inducible element from the c-fos gene, m67 variant, 5^′-[…]) that binds Stat1 and Stat3 [11, 12] and the mammary gland factor element (MGFe) from the bovine β–casein gene promoter (sense strand, 5^′-[…]) that binds Stat5 and Stat1 [11, 12]. Details are presented in Supplementary Information, “Methods”. […]
min, prior to incubation with the radiolabeled probe for 30 min at 30 °C and subjecting to EMSA analysis.
In another case, the nuclear extract was pre-incubated with the radiolabeled probe for 30 min at 30 °C prior to incubation with increasing concentration of H182 at room temperature for 30 min and subjecting to EMSA analysis. Bands corresponding to Stats DNA- binding activities were scanned and quantified using ImageJ and plotted as a percentage of control (vehicle) against the concentration of the inhibitor, from which the IC50 values were derived .
On the technique in general: Mobility shift assays separate free from complexed probe on a gel.

Experiment [2] concerns the target T2, pY705Stat3 (Homo sapiens, UniProt P40763).
T2 construct: endogenous in cells
As to the kind of experiment: Western blotting for pY705Stat3 in treated breast cancer cells. The format is cell-based. To be noted: for Effect on constitutive Stat3 Tyr phosphorylation (pYStat3) in cells: MDA-MB-468 and MDA-MB-231, 0–5 μM, 1 or 2 h. How it is done:
These studies were performed as previously described. Details are presented in Supplementary Information, “Methods”.
(§1) Nuclear extracts and whole-cell lysates were prepared, and samples of equal total protein were subjected to Stat3 DNA-binding assay/EMSA analysis using the hSIE probe, or to SDS/PAGE and Western blotting analysis for pY705Stat3, Stat3, or GAPDH [11, 12]. […] Depending on the concentration (1, 3, or 5 μM), the inhibitory effects of the azetidine compounds were observed relatively early, at 30–60 min, on both Stat3 DNA-binding activity (Fig. 4C) and Tyr phosphorylation (Fig. 4D, pY705Stat3).
During confluence of cultured cells, the cell-to-cell adhesion and cadherin engagement trigger increased Tyr705Stat3 phosphorylation in a variety of cell lines. To investigate the impact of cell-to-cell adhesion and cadherin engagement, parallel studies were conducted in which cells in culture were untreated or treated with 1 or 2 μM H182 for 0.5–48 h, and whole-cell lysates prepared and immunoprobed for pTyr705Stat3. […] After 48-h incubation, the cell confluency of the DMSO-treated samples reached to around 60% for MDA-MB-468 cells and 80% for MDA-MB-231 cells. […] In the untreated cells, Stat3 (red punctate) staining was predominantly localized in the nucleus of the tumor cells, with weak presence in the cytoplasm (Fig. 4F, 0, Stat3, red merged with blue DAPI nuclear staining). […] Total Stat3 protein levels in all of these studies were unchanged, and GAPDH, tubulin or β-actin levels show equal protein loading. The percent changes induced by H182 treatment on Stat3 DNA-binding activity and phosphorylation in the treated cells are shown.
These studies were performed as previously described [1 -3] . Briefly, snap-frozen tumor tissues or cultured cells treated or not were harvested and whole-cell or tissue lysates were prepared in radioimmunoprecipitation assay (RIPA) buffer. Samples of equal total protein were subjected to SDS - PAGE and immunoblotting analysis. Primary antibodies used were anti- Stat3, pY705-Stat3, pS727Stat3, […]
Akt, pT202/Y204Erk1/2 (p44/42), Erk1/2, PARP , caspase 3, c-Myc, survivin, VEGF, β-actin, α/β-tubulin, and GAPDH. For the studies of the effects of cell density and confluence on pY705Stat3, cells were seeded […] in culture dishes. The next day, cells were untreated (DMSO control, […]
0.1%) or treated at the same time with 1 or 2 µM H182, allowed to incubate for the indicated time and then harvested for whole-cell lysate preparation and SDS -PAGE / immunoblotting analy sis. After 48-h incubation, the cell confluency of the DMSO-treated samples reached to around 60% for MDA-MB -468 cells and 80% for MDA- MB-231 cells. […]

For experiment [3], the system named is normal human mesothelial cells. In words: CyQuant viable cell number assay, normal mesothelial cells. The format is cell-based. To be noted: 72 h, read-out: IC50 viable cell numbers, normal human mesothelial cells. How it is done: CyQuant assay was performed to evaluate compounds as previously reported. Details are presented in Supplementary Information, “Methods”. […]
1.2.6. Cell viability assays
CyQuant assay was performed to evaluate compounds as previously reported [1 -3] . Briefly, cells (5 x 10^3 per well, 100 µl) in culture in 96-well plates were treated once with 0 -10 µM concentrations of H120, H105, […]
concentration of H182 for 6 h and then treated with 0- 100 nM docetaxel or 0-20 µM cisplatin for a total of 72 h. Viable cell numbers were assessed by a CyQuant cell proliferation kit according to the manufacturer’s instructions (Thermo/Life Technologies Corp, Carlsbad, CA). Viable cell numbers were normalized to that of DMSO (control)-treated samples. […]

Experiment [4] deals with Stat3 (Homo sapiens, UniProt P40763). As to the kind of experiment: EMSA of constitutive Stat3 DNA-binding activity in nuclear extracts of treated breast cancer cells. The format is cell-based. The arrangement: endogenous in cells. Particulars: MDA-MB-468 and MDA-MB-231, 0–5 μM, 1 or 2 h. How it is done: These studies were carried out as previously described using the ^32P-labeled oligonucleotide probes, hSIE (high affinity sis-inducible element from the c-fos gene, m67 variant, 5^′-[…]) that binds Stat1 and Stat3 [11, 12] and the mammary gland factor element (MGFe) from the bovine β–casein gene promoter (sense strand, 5^′-[…]) that binds Stat5 and Stat1 [11, 12]. Details are presented in Supplementary Information, “Methods”.
Stat3, sequence (P40763 whole entry): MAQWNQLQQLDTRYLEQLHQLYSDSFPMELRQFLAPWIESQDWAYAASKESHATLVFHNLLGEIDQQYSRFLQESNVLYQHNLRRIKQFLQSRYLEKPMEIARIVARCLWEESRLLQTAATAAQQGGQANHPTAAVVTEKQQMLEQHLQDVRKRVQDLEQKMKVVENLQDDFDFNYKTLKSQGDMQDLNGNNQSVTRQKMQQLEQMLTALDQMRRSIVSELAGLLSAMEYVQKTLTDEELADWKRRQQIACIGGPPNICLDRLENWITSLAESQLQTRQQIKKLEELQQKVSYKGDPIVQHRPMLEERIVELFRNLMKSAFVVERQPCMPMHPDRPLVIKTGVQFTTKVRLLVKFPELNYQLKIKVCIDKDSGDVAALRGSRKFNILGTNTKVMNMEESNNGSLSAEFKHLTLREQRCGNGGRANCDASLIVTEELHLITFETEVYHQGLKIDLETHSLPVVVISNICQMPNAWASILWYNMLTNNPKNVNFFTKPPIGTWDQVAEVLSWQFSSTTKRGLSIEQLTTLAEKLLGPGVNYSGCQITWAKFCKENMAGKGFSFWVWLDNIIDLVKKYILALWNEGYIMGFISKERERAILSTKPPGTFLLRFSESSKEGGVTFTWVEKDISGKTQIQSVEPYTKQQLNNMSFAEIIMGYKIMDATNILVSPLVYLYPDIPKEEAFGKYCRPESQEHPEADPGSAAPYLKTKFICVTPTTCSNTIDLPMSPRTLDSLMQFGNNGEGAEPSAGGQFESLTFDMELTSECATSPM
as §1

[5] abbreviates: first Stat1:Stat1 value listed (hSIE probe).
[6] abbreviates: second Stat1:Stat1 value listed (MGFe probe).

T2 sequence (P40763 whole entry): as above

Usually IC50 stands for the midpoint of a concentration-inhibition curve. `O=C([C@H]1CCN1S(=O)(=O)c1c(F)c(F)c(F)c(F)c1F)N(Cc1ccc(C2CCCCC2)cn1)c1ccc2c(=O)[nH]cnc2c1` [Compound H172]: the concentration for half-maximal inhibition (IC50) in experiment [1] (setting [5]) was > 20 µM; in experiment [1] (setting [6]), > 20 µM; in experiment [3] it was 4.9 to 9.2 µM. Moreover, the “Effect on constitutive Stat3 Tyr phosphorylation (pYStat3) in cells” value in experiment [2] is “dose-dependent inhibition”. In experiment [4], the “Effect on constitutive Stat3 DNA-binding activity in cells” value is “dose-dependent inhibition”.
In the case of `O=C([C@H]1CCN1S(=O)(=O)c1c(F)c(F)c(F)c(F)c1F)N(Cc1ccc(C2CCCCC2)cn1)c1ccc2c(=O)[nH]ncc2c1` [Compound H182], the IC50 is 16.8 µM in experiment [1] (setting [5]), 17.8 µM in experiment [1] (setting [6]) and 4.9 to 9.2 µM in experiment [3]. Moreover, in experiment [2] (3 μM H182), the “Duration of inhibition of Stat3 activation (pY705Stat3)” value is listed as “sustained inhibition of Stat3 activation for up to 48 h”. For the same compound, the “Effect on constitutive Stat3 Tyr phosphorylation (pYStat3) in cells” value in experiment [2] is given as “dose-dependent inhibition”. In addition, the “Effect on EGF-induced pY705Stat3” value in experiment [2] (MDA-MB-468 cells, 1–3 μM H182) was “inhibited EGF-induced pY705Stat3 in MDA-MB-468 cells in a dose-dependent manner”. The “Effect on constitutive Stat3 DNA-binding activity in cells” value in experiment [4] is on record as “dose-dependent inhibition”.
